In ChEMBL document CHEMBL5724562, “Toxicity screen in isolated B cell assay results for EUbOPEN Chemogenomics Library” (2024):

Each molecule was assayed on B cell (assay: Cytotoxicity screening of chemical probes in isolated B cell assay. Data is normalized to DMSO control, the cell viability average of replicates are reported. Reduction of ATP level more than 20% indicate compromised cell health status.). Conditions: human, 0.1 µM.

Structure (SMILES) | Cell Viability [%]
CCCCN(CCCC)C(=O)CN1C[C@H](c2cc(OC)c3c(c2)OCO3)[C@@H](C(=O)O)[C@@H]1CC(C)(C)CCC.Cc1ccc(S(=O)(=O)O)cc1 | 100.019

Same assay, conditions: human, 1 µM

Structure (SMILES) | Cell Viability [%]
CCOc1nc2cccc(C(=O)O)c2n1Cc1ccc(-c2ccccc2-c2nnn[nH]2)cc1 | 101.389
CCCCC(=O)N(Cc1ccc(-c2ccccc2-c2nnn[nH]2)cc1)[C@H](C(=O)O)C(C)C | 103.145
CC1(C)[C@H]2C[C@H](C/C=C\CCCC(=O)O)[C@@H](NC(=O)c3csc4ccc(O)cc34)[C@@H]1C2 | 100.906
Cl.Cl.Cl.c1ccc(N2CCN(Cc3nc4ccccc4[nH]3)CC2)nc1 | 98.1024
O=C(Nc1cccnn1)N1CCC(=Cc2cccc(Oc3ccc(C(F)(F)F)cn3)c2)CC1 | 98.4854
COCCn1c(C)c(C)s/c1=N\C(=O)C1C(C)(C)C1(C)C | 97.5131
CC#C[C@@H](CC(=O)O)c1ccc(OCc2cccc(-c3ccc(C(F)(F)F)cc3)c2)cc1 | 93.0276
Cc1cc(OCCCS(C)(=O)=O)cc(C)c1-c1cccc(COc2ccc3c(c2)OC[C@H]3CC(=O)O)c1 | 101.968
COc1cc(Nc2nccc(-c3cnn4nc(OC)ccc34)n2)cc(C(F)(F)F)c1 | 93.0077
COc1ccncc1C(=O)NC(=O)Nc1ccc(-c2ccccc2)c(C(F)(F)F)c1 | 100.618
Cc1sc2c(c1C)C(c1ccc(Cl)cc1)=N[C@@H](CC(=O)OC(C)(C)C)c1nnc(C)n1-2 | 83.2653
O=C(O)c1n[nH]c2c1C[C@H]1C[C@@H]21 | 98.0706
COc1ccccc1S(=O)(=O)Nc1ccc2c(c1)CN(C)C(=O)N2 | 94.2739
CCCc1cc(C)[nH]c(=O)c1CNC(=O)c1cc(-c2ccnc(N3CCN(C)CC3)c2)cc2c1cnn2C(C)C | 92.8371
CCc1nc2c(C)cc(C)nc2[nH]1 | 100.659
O=C(c1ccc(C(=O)N2CCC(N3CCCC3)CC2)c(Nc2ccccc2)c1)N1CCC(N2CCCC2)CC1 | 93.0388
COc1cc2c(NC3CCN(C(C)C)CC3)nc(N3CCC(F)(F)CC3)nc2cc1OCCCN1CCCC1 | 98.4898
CSc1cc2c(cc1C(F)(F)F)N(C(=O)Nc1cccnc1)CC2 | 99.9626
CC[C@H]1OC(=O)[C@H](C)[C@@H](O[C@H]2C[C@@](C)(OC)[C@@H](O)[C@H](C)O2)[C@H](C)[C@@H](O[C@@H]2O[C@H](C)C[C@H](N(C)C)[C@H]2O)[C@@]2(C)CC(C)=C(O2)[C@H](C)[C@@H](O)[C@]1(C)O | 98.1033
CC(C)N(CCCNC(=O)Nc1ccc(C(C)(C)C)cc1)C[C@H]1O[C@@H](n2cc(Br)c3c(N)ncnc32)[C@H](O)[C@@H]1O | 95.9292
COc1cc2c(cc1OCCCN1CCCC1)N=C(N)C21CCC1 | 98.8274
CCOC(=O)Nc1cc(-c2ccc(C)c(NS(C)(=O)=O)c2)nn2c(C)nnc12 | 84.5677
CCOC(=O)CCNc1cc(N2CCc3ccccc3CC2)nc(-c2ccccn2)n1 | 95.6308
Cc1cc(Cn2cnc3c2C[C@@H](C(=O)O)N(C(=O)C(c2ccccc2)c2ccccc2)C3)ccc1N(C)C | 100.94
COc1ccc(C(=O)N2CCN(C(=O)/C=C/c3ccc(Br)cc3)CC2)cc1 | 97.705
Cc1nc[nH]c1CCN.Cl | 99.4273

Structure (SMILES) | Cell Viability [%]
COc1ccccc1C(=O)Nc1cc2c(cc1N1CCCC1)n(C)c(=O)n2C | 98.47
CCCc1cc(C)[nH]c(=O)c1CNC(=O)c1cc(-c2ccc(N3CCN(C(C)C)CC3)nc2)cc2c1cnn2C(C)C | 96.021
CC(C)NC(=O)N1CC[C@H](NC2=Nc3cc(F)ccc3N(CC(F)F)c3ccc(Cl)cc32)C1 | 98.1837
COc1cc(-c2cn([C@H]3CCc4c(F)cccc4N(CC(F)(F)F)C3=O)nn2)ccc1-n1cnc(C)c1 | 98.1038
COc1ccc(CCc2nc3cc(-c4c(C)noc4C)ccc3n2C[C@H](C)N2CCOCC2)cc1Cl | 94.0053
CCCOc1ccn2c(C(C)=O)cc(-c3ccccc3S(C)(=O)=O)c2c1 | 98.3118
COc1cc(C#N)ccc1S(=O)(=O)Nc1ccc2c(c1)cc(C)c(=O)n2C | 99.4263
O=C(/C=C/N1C[C@H]2C[C@@H]1CN2c1ccccn1)c1ccccc1O | 91.7355
COc1cc2c(cc1NS(=O)(=O)c1ccc(Br)cc1C)n(C)c(=O)n2C | 96.0295
Clc1cccc(-c2nnnn2Cc2cccnc2)c1Cl | 97.1983
CCCS(=O)(=O)c1nc(NC2CC2)cc(-c2ccc3c(ccn3C3CC(C)(C)NC(C)(C)C3)c2)n1 | 24.107
CN1CCN(c2ccc(-c3cccc(CN4CCOCC4)c3)cc2NC(=O)c2c[nH]c(=O)cc2C(F)(F)F)CC1 | 99.6552
Cc1nc(N2CC[C@H](O)C2)ncc1-c1cc(C(F)(F)F)cc2[nH]ncc12 | 99.9461
Cc1ccc(Cn2nc(C(=O)N[C@@H]3C(C)(C)[C@@H]4CC[C@@]3(C)C4)cc2-c2ccc(Cl)c(C)c2)cc1 | 95.8945
COc1cc(-c2cn(C)c(=O)c3cnccc23)c(OC)cc1CN(C)C | 95.7323
CCC(=O)N1CCOc2c(cc(-c3ccc(OC)c(OC)c3)cc2OCC2CCCN(C)C2)C1 (configuration not stated) | 98.9735
COc1cc(C(=O)N(CCCc2ccccc2)Cc2ccc(CC(=O)O)cc2)cc(OC)c1C | 101.167
CC(=O)c1cc(-c2cc(C(=O)NC3CC3)ccc2C)c2ncccn12 | 95.0596
CN1C[C@H](Nc2cnn(C)c(=O)c2Br)C[C@H](c2ccccc2)C1 | 94.5817
O=C(NCC(=O)N1CCCC1)Nc1ccc2cnccc2c1 | 100.263
O=C1CCc2cc(Nc3cc(OC4CCOCC4)c([N+](=O)[O-])cc3Cl)ccc2N1 | 94.8245
Cc1cc2c(cc1N1C(=O)c3cccc4c(CCCO)ccc(c34)C1=O)n(C)c(=O)n2C | 92.6096
Nc1ncnc2c1ccn2[C@@H]1O[C@H]([C@H](O)c2ccccc2)[C@@H](O)[C@H]1O | 101.429
Cl.Cl.c1ccc([C@@H]2C[C@H]2NC2CCNCC2)cc1 | 93.3816
Cn1cc(CCn2cnc(-c3cnn(C)c3)c2-c2ccc(C#N)cc2)cn1 | 99.8514
COc1cc(Nc2ccnc3ccc(Br)cc23)cc(OC)c1OC | 95.869

Structure (SMILES) | Cell Viability [%]
CCN(CC)S(=O)(=O)Nc1cccc(-c2ccc3c(NC(=O)C4CC4)n[nH]c3c2)c1 | 95.3727
Clc1cc2c(NC3CCCC3)nnc(-c3ccncc3)c2cc1Cl | 99.0979
O=C(NC[C@H](O)CN1CCc2ccccc2C1)c1ccnc(NC2CCC2)c1 | 91.5741
Cc1cn(-c2cc(NC(=O)c3ccc4c(c3)CN(c3cncnc3)C[C@@H]4C)cc(C(F)(F)F)c2)cn1 | 96.9111
CN(C)C(=O)/C(C#N)=C/c1ccc(-c2nc3cnc4[nH]ccc4c3n2C2CCCCC2)o1 | 89.3026
Cc1nnc2c3ccccc3c(N[C@@H](C)[C@H](c3ccccc3)N(C)C)nn12 | 95.5642
Cl.Cl.NC1(c2ccc(-c3nc4ccn5c(=O)[nH]nc5c4cc3-c3ccccc3)cc2)CCC1 | 85.9288
O=C(NCc1ccc(F)cc1)N1CCN2C(=O)OC(c3ccccc3)(c3ccccc3)C2C1 (configuration not stated) | 104.95
Cl.O=C(O)c1cc(-c2ccc(C3CCNCC3)cc2)c2ccc(-c3ccc(C(F)(F)F)cc3)cc2c1 | 98.0873
Cc1cccc(-c2cnc3occ(-c4ccc(C(=O)O)c(C5CCCC5)c4)c3c2)c1 | 94.5514
C[C@H]1CC(=O)Nc2cc(C(=O)NCCC3CC3)ccc2N1C(=O)N1CC2CC2C1 (some centres not stated) | 100.735
CN(C)C(=O)c1ccc(-c2cc(C(=O)N[C@@H]3CCc4ccccc43)no2)cc1O | 97.9607
C[C@@H](c1cccc(CN)c1)n1cc(Cl)cc(C(N)=O)c1=N.Cl | 100.561
Cl.O=c1c2cccn2c2ccccc2n1CCCN1CCC(c2ccc(Cl)cc2)CC1 | 96.0052
O=C(NCCCN1CCOC1=O)c1cnc(NCc2cc(Br)ccc2Br)nc1NC1CCCC1 | 100.266
Cc1c(Nc2ccc(S(=O)(=O)N3CCN(C)CC3)cc2F)nc2ccc(-c3cnn(C4CC4)c3)cn2c1=O | 96.0793
Cl.O=C([C@@H](Cc1cccc(C(F)(F)F)c1)NS(=O)(=O)c1cc(F)c2c(c1)CCNC2)N1CCCC1 | 98.8503
CCCCN(Cc1ccccc1)C(=O)c1ccc(S(=O)(=O)Nc2ccccc2)cc1 | 99.9127
COc1cc(OC)cc(-c2noc(N3CCN(C)C4(CCN(c5ccnc(C)c5)CC4)C3)n2)c1 | 97.1072
CCCCN(CCCC)C(=O)CN1C[C@@H](c2cc(OC)c3c(c2)OCO3)[C@H](C(=O)O)[C@H]1CC(C)(C)CCC.Cl | 89.8179
c1ccc2oc(-c3csc(C4CCN(Cc5nc6ncccc6[nH]5)CC4)n3)cc2c1 | 83.0928
C[C@H]1CCCN1Cc1nc2cc(NC(=O)c3ccc4cnccc4c3)ccc2[nH]1 | 90.4338
CCNC(=O)c1cc2c(N3CCOCC3C)ccnc2[nH]1 (configuration not stated) | 99.1799
COc1ccccc1C(=O)Nc1cc2c(cc1N1CCNCC1C)n(C)c(=O)n2C (configuration not stated) | 98.4804
